Data published in patent publication US9301961B2, “Autoimmune and inflammatory disorder therapy” (Katholieke Universiteit Leuven, K.U. Leuven R&D, priority 2011, dated 2016).

What was measured:
LOK (h) = target: T1, LOK (h) (Homo sapiens, UniProt O94804); assay: Commercial kinase activity assay (Millipore, 33P-ATP filter); format: biochemical; conditions: 10 μM test compound
T1 construct: purchased Millipore
Experimental: LOK (h) was incubated with 8 mM MOPS pH 7.0, 0.2 mM EDTA, 250 μM […], 10 mM MgAcetate and [γ-^33P-ATP] (specific activity approx. 500 cpm/pmol, concentration as required). The reaction was initiated by the addition of the MgATP mix. After incubation for 40 minutes at room temperature, the reaction was stopped by the addition of 3% phosphoric acid solution. 10 μL of the reaction was then spotted onto a P30 filtermat and washed three times for 5 minutes in 75 mM phosphoric acid and once in methanol prior to drying and scintillation counting. PI3K p110β/p85α (h) PI3K (p110β/p85α) (h) was incubated in assay buffer containing 10 μM phosphatidylinositol-4,5-bisphosphate and MgATP (concentration as required). The reaction was initiated by the addition of the MgATP mix. After incubation for 30 minutes at room temperature, the reaction was stopped by the addition of stop solution containing EDTA and biotinylated phosphatidylinositol-3,4,5-trisphosphate. Finally, detection buffer was added, which contains europium-labelled anti-GST monoclonal antibody, GST-tagged GRP1 PH domain and streptavidinallophycocyanin. The plate was then read in time-resolved fluorescence mode and the homogenous time-resolved fluorescence (HTRF®) signal determined according to the formula HTRF=10000×(Em665nm/Em620 nm). YSK4 (h) YSK4 (h) was incubated with 8 mM MOPS pH 7.0, 0.2 mM EDTA, 250 […], 10 mM MgAcetate and [γ-^33P-ATP] (specific activity approx. 500 cpm/pmol, concentration as required). The reaction was initiated by the addition of the MgATP mix. After incubation for 40 minutes at room temperature, the reaction was stopped by the addition of 3% phosphoric acid solution. 10 μL of the reaction was then spotted onto a P30 filtermat and washed three times for 5 minutes in 75 mM phosphoric acid and once in methanol prior to drying and scintillation counting. PI4KA (PI4K alpha) The 2× PI4KA (PI4K alpha)/PI Lipid Kinase Substrate mixture was prepared in 20 mM Tris, pH 7.5, 0.4% Triton X-100, 5 mM MgCl2, 0.5 mM EGTA. The final 10 μL Kinase Reaction consisted of 75-300 ng PI4KA (PI4K alpha) and 100 μM PI Lipid Kinase Substrate in 7.5 mM HEPES, 10 mM Tris, pH 7.5, 0.2% Triton X-100, 2.5 mM MgCl2, 0.25 mM EGTA. After the 1 hour Kinase Reaction incubation, 5 μL of Detection Mix consisting of a europium labeled anti-ADP antibody, an Alexa Fluor® 647 labeled ADP tracer, and EDTA (to stop the kinase reaction) was added to the assay well. ADP formed by the kinase reaction (in the absence of an inhibitor) displaced the Alexa Fluor® 647 labeled ADP tracer from the antibody, resulting in a decrease in the TR-FRET signal. […] PI4KB (PI4K beta) The 2× PI4KB (PI4K beta)/PI Lipid Kinase Substrate mixture was prepared in 50 mM HEPES pH 7.5, 0.1% CHAPS, 1 mM EGTA, 4 mM MgCl2. […]

[1] = target: T2, PI3KCB (PI3K p110β/p85α (h)) (Homo sapiens, UniProt P42338); assay: Commercial kinase activity assay (Millipore, HTRF); format: biochemical; conditions: 10 μM test compound
T2 construct: purchased Millipore
Experimental: LOK (h) was incubated with 8 mM MOPS pH 7.0, 0.2 mM EDTA, 250 μM […], 10 mM MgAcetate and [γ-^33P-ATP] (specific activity approx. 500 cpm/pmol, concentration as required). The reaction was initiated by the addition of the MgATP mix. After incubation for 40 minutes at room temperature, the reaction was stopped by the addition of 3% phosphoric acid solution. 10 μL of the reaction was then spotted onto a P30 filtermat and washed three times for 5 minutes in 75 mM phosphoric acid and once in methanol prior to drying and scintillation counting. PI3K p110β/p85α (h) PI3K (p110β/p85α) (h) was incubated in assay buffer containing 10 μM phosphatidylinositol-4,5-bisphosphate and MgATP (concentration as required). The reaction was initiated by the addition of the MgATP mix. After incubation for 30 minutes at room temperature, the reaction was stopped by the addition of stop solution containing EDTA and biotinylated phosphatidylinositol-3,4,5-trisphosphate. Finally, detection buffer was added, which contains europium-labelled anti-GST monoclonal antibody, GST-tagged GRP1 PH domain and streptavidinallophycocyanin. The plate was then read in time-resolved fluorescence mode and the homogenous time-resolved fluorescence (HTRF®) signal determined according to the formula HTRF=10000×(Em665nm/Em620 nm). […]

PAK1 = target: T3, PAK1 (Homo sapiens, UniProt Q13153); assay: Commercial kinase activity assay (Invitrogen, fluorescence); format: biochemical; conditions: 10 μM test compound
T3 construct: made in house; host or cells: E. coli BL21-derived host (T7 phage) or HEK-293

[2] = test system: cardiac allograft rejection; assay: Cardiac allograft transplantation model, treatment day -1 to day 30 (Examples 7 and 8); format: in vivo, mice (C57BL/6 donor, Balb/c recipient); conditions: Example 7
Experimental: Inbreed C57BL/6 H-2b and Balb/c H-2d female mice, 8-10 weeks old, 20-25 g, were used as donor and recipient, respectively. Heterotopic heart transplantation was performed by implanting the donor heart on the neck of recipients using conventional microsurgery techniques. Graft beating was checked daily by inspection and palpation. Cessation of beating indicated graft rejection, which was confirmed by histological examination. Housing and all experimental animal procedures were approved by the Institutional Animal Care and Research Advisory Committee of the KU Leuven.

ADCK3 = target: T4, ADCK3 (Homo sapiens, UniProt Q8NI60); assay: Kinase-tagged phage competition binding assay (qPCR), 382-kinase library
T4 construct: made in house; host or cells: E. coli BL21-derived host (T7 phage) or HEK-293

TESK1 = target: T5, TESK1 (Homo sapiens, UniProt Q15569); assay: as above
T5 construct: made in house; host or cells: E. coli BL21-derived host (T7 phage) or HEK-293

[3] = 10 μM compound, read-out: % Inhibition of substrate binding
[4] = stated for the 8 kinases of Table 1

T4 sequence (Q8NI60 163-647): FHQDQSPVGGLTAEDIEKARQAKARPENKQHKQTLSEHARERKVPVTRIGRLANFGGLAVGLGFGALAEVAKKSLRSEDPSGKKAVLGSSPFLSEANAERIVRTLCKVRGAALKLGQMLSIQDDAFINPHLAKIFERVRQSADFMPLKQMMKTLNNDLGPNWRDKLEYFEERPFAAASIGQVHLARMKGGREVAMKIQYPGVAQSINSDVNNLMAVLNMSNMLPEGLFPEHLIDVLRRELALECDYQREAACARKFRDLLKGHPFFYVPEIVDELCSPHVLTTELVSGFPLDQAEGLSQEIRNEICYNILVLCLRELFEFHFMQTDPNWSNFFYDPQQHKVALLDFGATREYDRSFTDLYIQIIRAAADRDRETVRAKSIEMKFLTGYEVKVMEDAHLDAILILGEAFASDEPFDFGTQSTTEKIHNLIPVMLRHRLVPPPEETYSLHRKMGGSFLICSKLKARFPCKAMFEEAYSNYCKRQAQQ
T5 sequence (Q15569 whole entry): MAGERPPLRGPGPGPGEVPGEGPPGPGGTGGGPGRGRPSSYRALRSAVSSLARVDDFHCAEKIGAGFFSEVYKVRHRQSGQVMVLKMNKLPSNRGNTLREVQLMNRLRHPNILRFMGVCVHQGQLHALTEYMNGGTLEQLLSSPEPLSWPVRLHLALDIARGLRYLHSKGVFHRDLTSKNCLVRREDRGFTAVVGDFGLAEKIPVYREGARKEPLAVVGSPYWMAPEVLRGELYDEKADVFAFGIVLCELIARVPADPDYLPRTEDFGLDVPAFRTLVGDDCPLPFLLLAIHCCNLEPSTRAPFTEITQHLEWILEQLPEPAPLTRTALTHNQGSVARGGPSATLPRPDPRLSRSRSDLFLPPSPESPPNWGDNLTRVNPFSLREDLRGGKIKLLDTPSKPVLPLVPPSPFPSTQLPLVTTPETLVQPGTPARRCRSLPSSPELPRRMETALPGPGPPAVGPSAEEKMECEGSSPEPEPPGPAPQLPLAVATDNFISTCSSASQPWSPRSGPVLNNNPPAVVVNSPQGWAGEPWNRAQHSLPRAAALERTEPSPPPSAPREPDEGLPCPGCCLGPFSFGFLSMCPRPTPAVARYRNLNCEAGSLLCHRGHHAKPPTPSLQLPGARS
T2 sequence (P42338 whole entry): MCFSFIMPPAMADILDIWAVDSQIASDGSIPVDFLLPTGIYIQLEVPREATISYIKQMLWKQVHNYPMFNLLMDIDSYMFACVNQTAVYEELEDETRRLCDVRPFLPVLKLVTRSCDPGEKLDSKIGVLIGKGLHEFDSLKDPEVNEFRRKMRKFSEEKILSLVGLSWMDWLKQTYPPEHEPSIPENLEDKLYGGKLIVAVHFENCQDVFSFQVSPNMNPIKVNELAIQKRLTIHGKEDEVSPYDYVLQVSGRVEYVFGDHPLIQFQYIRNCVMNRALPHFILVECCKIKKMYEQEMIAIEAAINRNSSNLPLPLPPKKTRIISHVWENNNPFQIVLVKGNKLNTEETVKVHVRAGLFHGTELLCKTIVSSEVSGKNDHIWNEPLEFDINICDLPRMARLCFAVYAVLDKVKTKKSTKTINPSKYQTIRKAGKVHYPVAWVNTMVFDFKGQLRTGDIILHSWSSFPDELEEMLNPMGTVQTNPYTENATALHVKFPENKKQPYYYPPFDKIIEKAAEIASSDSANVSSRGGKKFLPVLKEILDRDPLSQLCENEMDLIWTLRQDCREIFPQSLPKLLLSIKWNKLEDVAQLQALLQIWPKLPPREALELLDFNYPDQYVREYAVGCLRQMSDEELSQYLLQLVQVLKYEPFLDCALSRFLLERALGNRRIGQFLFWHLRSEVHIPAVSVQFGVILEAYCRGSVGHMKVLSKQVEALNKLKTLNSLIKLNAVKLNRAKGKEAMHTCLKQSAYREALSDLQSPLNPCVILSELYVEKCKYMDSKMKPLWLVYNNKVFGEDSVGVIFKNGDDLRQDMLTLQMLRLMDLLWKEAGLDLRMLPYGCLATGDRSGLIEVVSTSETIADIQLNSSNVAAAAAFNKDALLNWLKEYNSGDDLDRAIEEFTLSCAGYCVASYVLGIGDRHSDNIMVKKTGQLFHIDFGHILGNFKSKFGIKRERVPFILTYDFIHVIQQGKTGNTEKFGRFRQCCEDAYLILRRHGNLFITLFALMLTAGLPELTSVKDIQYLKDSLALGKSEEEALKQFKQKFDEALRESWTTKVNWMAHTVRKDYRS
T2 sequence (P27986 whole entry partner): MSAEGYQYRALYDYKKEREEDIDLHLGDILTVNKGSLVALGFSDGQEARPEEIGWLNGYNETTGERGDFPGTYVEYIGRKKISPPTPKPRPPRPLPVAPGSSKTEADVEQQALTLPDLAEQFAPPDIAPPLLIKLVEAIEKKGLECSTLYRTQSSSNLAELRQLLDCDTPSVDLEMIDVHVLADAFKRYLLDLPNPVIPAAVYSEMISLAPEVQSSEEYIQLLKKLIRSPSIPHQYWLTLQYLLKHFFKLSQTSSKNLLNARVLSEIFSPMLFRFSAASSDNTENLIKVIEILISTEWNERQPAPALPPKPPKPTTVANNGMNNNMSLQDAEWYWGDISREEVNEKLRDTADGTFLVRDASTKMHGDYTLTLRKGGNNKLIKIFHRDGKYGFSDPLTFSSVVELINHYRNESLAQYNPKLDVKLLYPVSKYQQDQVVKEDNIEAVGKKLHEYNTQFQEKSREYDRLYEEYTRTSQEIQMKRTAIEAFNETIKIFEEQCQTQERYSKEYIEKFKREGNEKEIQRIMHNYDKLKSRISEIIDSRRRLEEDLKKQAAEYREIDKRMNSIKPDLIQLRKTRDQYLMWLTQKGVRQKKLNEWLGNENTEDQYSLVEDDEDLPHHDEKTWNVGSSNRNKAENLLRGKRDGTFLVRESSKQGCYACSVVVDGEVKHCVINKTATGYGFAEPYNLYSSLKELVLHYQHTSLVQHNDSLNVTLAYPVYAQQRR
T3 sequence (Q13153 whole entry): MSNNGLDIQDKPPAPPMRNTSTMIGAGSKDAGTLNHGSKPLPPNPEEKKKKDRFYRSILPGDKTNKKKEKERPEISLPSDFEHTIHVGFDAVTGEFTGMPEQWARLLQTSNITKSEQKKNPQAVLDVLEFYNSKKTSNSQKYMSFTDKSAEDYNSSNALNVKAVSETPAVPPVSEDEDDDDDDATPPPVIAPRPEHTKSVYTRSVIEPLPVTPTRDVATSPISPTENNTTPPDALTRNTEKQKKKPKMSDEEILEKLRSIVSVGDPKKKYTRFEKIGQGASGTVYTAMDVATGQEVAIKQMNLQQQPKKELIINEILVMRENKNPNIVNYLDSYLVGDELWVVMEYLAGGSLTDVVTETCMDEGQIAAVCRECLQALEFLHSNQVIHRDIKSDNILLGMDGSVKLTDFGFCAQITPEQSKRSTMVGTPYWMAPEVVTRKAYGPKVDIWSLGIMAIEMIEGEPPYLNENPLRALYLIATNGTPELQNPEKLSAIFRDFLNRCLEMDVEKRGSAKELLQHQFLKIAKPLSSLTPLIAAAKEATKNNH
T1 sequence (O94804 whole entry): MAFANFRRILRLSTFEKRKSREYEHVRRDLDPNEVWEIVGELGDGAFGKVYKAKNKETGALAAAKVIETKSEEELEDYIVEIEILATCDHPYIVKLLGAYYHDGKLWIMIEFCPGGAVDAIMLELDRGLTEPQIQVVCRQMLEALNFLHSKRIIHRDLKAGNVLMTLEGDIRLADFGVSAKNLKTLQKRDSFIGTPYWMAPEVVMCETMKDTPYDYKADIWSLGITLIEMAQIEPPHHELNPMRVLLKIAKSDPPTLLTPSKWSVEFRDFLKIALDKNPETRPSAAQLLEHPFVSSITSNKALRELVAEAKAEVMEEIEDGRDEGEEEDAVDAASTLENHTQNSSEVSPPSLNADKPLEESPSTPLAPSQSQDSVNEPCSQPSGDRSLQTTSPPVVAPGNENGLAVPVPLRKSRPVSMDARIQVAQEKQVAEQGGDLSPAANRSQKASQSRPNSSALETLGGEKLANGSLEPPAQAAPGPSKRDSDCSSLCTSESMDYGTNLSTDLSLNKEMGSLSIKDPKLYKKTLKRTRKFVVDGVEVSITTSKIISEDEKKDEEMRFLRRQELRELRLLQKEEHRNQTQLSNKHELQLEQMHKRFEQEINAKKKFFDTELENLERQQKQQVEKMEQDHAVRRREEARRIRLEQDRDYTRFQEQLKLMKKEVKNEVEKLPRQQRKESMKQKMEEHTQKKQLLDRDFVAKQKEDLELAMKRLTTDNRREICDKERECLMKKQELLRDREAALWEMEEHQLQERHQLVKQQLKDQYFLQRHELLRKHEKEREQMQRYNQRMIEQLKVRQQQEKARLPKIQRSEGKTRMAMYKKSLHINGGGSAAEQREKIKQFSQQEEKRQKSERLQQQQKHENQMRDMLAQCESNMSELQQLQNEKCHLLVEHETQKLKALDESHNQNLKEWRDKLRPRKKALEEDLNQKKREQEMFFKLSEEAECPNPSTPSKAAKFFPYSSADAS

Q: For `Nc1nc(N2CCN(C(=O)COc3ccc(Cl)cc3)CC2)c2nc(-c3cccnc3)sc2n1` [formula (1), 5-amino-7-[4-(4-chlorophenoxyacetyl)piperazin-1-yl]-2-(pyridin-3-yl)thiazolo[5,4-d]pyrimidine], which Kinase activity (LOK (h)) is on record?
A: Its Kinase activity is 117 percentage of control.

Q: And the Kinase activity [1]?
A: Its Kinase activity is 100 percentage of control.

Q: And the Kinase activity (PAK1)?
A: The Kinase activity was 115 percentage of control.

Q: What about the “grafts surviving as long as treatment continued” value ([2]; 40 mg/kg daily gavage) of the same molecule?
A: The value was 3 out of 4.

Q: And the “graft function after withdrawal of the treatment” value ([2]; 40 mg/kg daily gavage until day 30)?
A: The value was “continued beating after withdrawal of the treatment (up to 60 days)”.

Q: And the inhibition at 10 µM (ADCK3; [3])?
A: Its inhibition at 10 µM is 68%.

Q: What about the IC50 (ADCK3; [4]) of the same molecule?
A: Its IC50 is less than 10 µM.

Q: And the inhibition at 10 µM (TESK1; [3])?
A: The inhibition at 10 µM was 51%.

Q: What about the IC50 (TESK1; [4]) of the same molecule?
A: The IC50 was less than 10 µM.
